Where two headings read alike, the source gives them in different places.

The test system of assay [1] is secretion of gastric fluids. The assay can be described thus: anti-secretory activity in pylorus-ligated rats (method of Shay et al.). The class given is in vivo, male albino Wistar rats. How it is done: In standard biological test procedures, described generally by Shay et al., Gastroenterology 5, 43 (1945) and 26, 906 (1954) and by Selmici et al., Acta Physiol. Acad. Sci. Hung. […] Anti-secretory activity was determined in male albino Wistar rats weighing approximately 180 g. using the method described by Shay et al. which is described as follows: the rats were divided into medicated groups of at least five rats each and control groups of ten rats. The rats were medicated orally once daily for 2 days prior to stomach ligation and once again immediately following ligation. All drugs were administered as the free base, and control rats received only the vehicle of medication. The rats were housed individually in wire cages, food was withdrawn 48 hours prior to surgery, and water was withdrawn at the time of surgery. Laparotomy was performed under light ether anesthesia, the pyloric-duodenal junction was ligated, and the wound was closed with metal clips and sprayed with a protective surgical dressing. Five hours following surgery, the rats were sacrificed, the stomach was removed, and the gastric juice collected. The gastric fluid was centrifuged, the total volume, color, and volume of solids were recorded. The pH of the gastric fluid was then determined on a Beckman pH meter, and the "free" and "total" hydrochloric acid content of each gastric sample was determined by titrating an aliquot of the gastric fluid (diluted to approximately 10 ml. with distilled water) by titrating with 0.1N sodium hydroxide against Toepfers reagent and phenolphthalein, respectively. By determining the milliequivalents of hydrochloric acid per milliliter of gastric juice and knowing the total volume of gastric juice secreted by each rat, the total acid output can be calculated. Since pH is a function of "free" acid, the activity of the test compounds can be evaluated by comparison of the mean "free" acid of medicated rats with the mean "free" acid of the controls, and the activity can thus be expressed in terms of percent inhibition of free acid.
(§1) Data obtained on administration of the compounds of formula I in rats in the anti-secretory and anti-ulcer tests described above are given in the table below. Unless noted otherwise, data were obtained on oral administration. Results in the anti-secretory activity tests are given in terms of the pH of the gastric fluid in the test animals and the percent inhibition of free acid, while results in the anti-ulcer test are given either in terms of the percent inhibition of ulcers or as a ratio representing the number of animals with ulcers (as the numerator) to the total number of animals in the test group (as the denominator). All doses are expressed in mg./kg.

In assay [2] the test system is reserpine-induced stomach ulceration. Put plainly: anti-ulcer activity, reserpine-induced ulcer test (method of Selmici et al.). Format: in vivo, male, albino, Sprague-Dawley rats. The following applies: Rattus norvegicus, 18 h, oral. How it is done:
The anti-ulcer activity of the compounds was determined using the reserpine-induced anti-ulcer test method, described by Selmici et al., which is described briefly as follows: male, albino, Sprague-Dawley rats, weighing approximately 300 g., were divided into medicated and control groups of at least five rats each, and one positive control group of five rats medicated with a known drug at the active dose was run with each experiment. The rats were medicated forty-eight, twenty-four, and one hour before receiving an injection of reserpine. All test drugs were administered orally in terms of base, and the control rats received only the vehicle of medication. The rats were housed individually in wire cages, and food was withdrawn 24 hours prior to injection of reserpine, while water was allowed ad libitum. One hour following the third medication, 5.0 mg. of reserpine per kilogram of body weight in a concentration of 5 mg./ml. was injected intramuscularly in each rat. Eighteen hours after injection the rats were sacrificed, their stomachs removed, opened along the greater curvature, rinsed in warm saline, and pinned to a cork board for gross observation. The stomachs were examined for the number and size of ulcerations located in the glandular portion of the stomach with the aid of a one millimeter grid ocular with a 10x dissecting microscope. The degree of ulceration was arbitrarily graded according to the number and size of the ulcers as follows:
The points were added together and divided by the number of rats in each group to give an ulcer score, and the difference in the mean scores of the medicated and control group was expressed as percent inhibition of ulceration. Alternatively, the results can be expressed as a ratio of the total number of rats with any degree of ulceration (as the numerator) to the total number of rats in the test group (as the denominator).
as §1

[3] abbreviates: Rattus norvegicus, po, 5 h, oral, 25 mg./kg., read-out: % Inhibition of Free Acid.
Setting [4] is: Rattus norvegicus, po, 5 h, oral, 100 mg./kg., read-out: % Inhibition of Free Acid.

As to `Cc1c(C)n(CC(N)=O)c2ccccc12` [Example 1A, 2,3-dimethyl-1-indoleacetamide], the inhibition in vivo at 25 mg/kg stood at 69% in assay [1] (setting [3]) and 95% in assay [2]. In addition, the inhibition in vivo at 50 mg/kg in assay [1] (Rattus norvegicus, po, 5 h, oral, 50 mg./kg., read-out: % Inhibition of Free Acid) was found to be 65%; in assay [2], 98%. Further, the inhibition in vivo at 100 mg/kg in assay [1] (setting [4]) amounted to 100%; in assay [2], 99%. Also, the inhibition in vivo at 200 mg/kg in assay [1] (Rattus norvegicus, po, 5 h, oral, 200 mg./kg., read-out: % Inhibition of Free Acid) worked out at 100%. In addition, the “pH of the gastric fluid” value is reported as 2.6 in assay [1] (oral, 25 mg./kg.); 3.0 in assay [1] (oral, 50 mg./kg.); 6.0 in assay [1] (oral, 100 mg./kg.); 6.7 in assay [1] (oral, 200 mg./kg.). Further, the inhibition in vivo at 0.8 mg/kg in assay [2] is 0%. This compound returned an inhibition in vivo at 1.56 mg/kg in assay [2] of 38%. In assay [2] (3.12 mg./kg.), this compound returned an inhibition in vivo at 3.12 mg/kg of 45%. The compound further registered an inhibition in vivo at 6.25 mg/kg in assay [2] of 75%. The compound also yielded an inhibition in vivo at 12.5 mg/kg in assay [2] (12.5 mg./kg.) of 81%.

Turning to `CCc1c(C)c2ccccc2n1CC(N)=O` [Example 1C, 2-Ethyl-3-methyl-1-indoleacetamide], the figures for the inhibition in vivo at 100 mg/kg in assay [1] (setting [4]) and in assay [2] were 50% and 96%, respectively. For the same compound, the “pH of the gastric fluid” value in assay [1] (oral, 100 mg./kg.) was found to be 2.8. In assay [2], this compound gave an inhibition in vivo at 25 mg/kg of 84%.

Consider `Cc1c(C)n(CCCC(N)=O)c2ccccc12` [Example 1D, γ-(2,3-Dimethyl-1-indole)butyramide], for which the inhibition in vivo at 6.25 mg/kg was determined as 14% in assay [1] (Rattus norvegicus, po, 5 h, oral, 6.25 mg./kg., read-out: % Inhibition of Free Acid) and 0% in assay [2]. For the same compound, the inhibition in vivo at 25 mg/kg in assay [1] (setting [3]) was 38%; in assay [2] it was 72%. The values for the inhibition in vivo at 100 mg/kg in assay [1] (setting [4]) and in assay [2] were 100% and 99%, respectively. The “pH of the gastric fluid” value in assay [1] (oral, 6.25 mg./kg.) came to 1.3; in assay [1] (oral, 25 mg./kg.) it was 1.6; in assay [1] (oral, 100 mg./kg.) it was 6.2. This compound had an inhibition in vivo at 0.8 mg/kg in assay [2] of 38%. In assay [2], this compound returned an inhibition in vivo at 1.56 mg/kg of 38%.

For `Cc1c(C)n(CCC(=O)N(C)C)c2ccccc12` [Example 2, β-(2,3-dimethyl-1-indole)-N,N-dimethylpropionamide], the inhibition in vivo at 100 mg/kg in assay [1] (setting [4]) amounted to 93%. Further, in assay [1] (oral, 100 mg./kg.), the “pH of the gastric fluid” value stood at 4.4. This compound also showed an inhibition in vivo at 25 mg/kg in assay [2] of 34%.

For `Cc1c(C)n(CC(=O)NO)c2ccccc12` [Example 3B, 2,3-Dimethyl-1-indoleacetohydroxamic acid], the inhibition in vivo at 100 mg/kg came out at 20% in assay [1] (setting [4]) and 99% in assay [2].

As for `CCc1c(C)n(CC(N)=O)c2ccccc12` [Example 3C, 2-Methyl-3-ethyl-1-indoleacetamide], the inhibition in vivo at 100 mg/kg was determined as 86% in assay [1] (setting [4]) and 97% in assay [2]. Besides, the “pH of the gastric fluid” value in assay [1] (oral, 100 mg./kg.) was 2.8.

As to `Cc1c(C)n(CCC(=O)NCCO)c2ccccc12` [Example 3D, β-(2,3-Dimethyl-1-indole)-N-(2-hydroxyethyl)propionamide], the “pH of the gastric fluid” value in assay [1] (oral, 100 mg./kg.) is 1.2. For the same compound, in assay [2], the inhibition in vivo at 25 mg/kg amounted to 48%.

For the compound `Cc1c(C)n(CCC(=O)NCCCO)c2ccccc12` [Example 3E, β-(2,3-Dimethyl-1-indole)-N-(3-hydroxypropyl)propionamide], the inhibition in vivo at 100 mg/kg in assay [1] (setting [4]) was found to be 34%. In addition, in assay [1] (oral, 100 mg./kg.), the “pH of the gastric fluid” value is recorded as 1.4. The compound also came in with an inhibition in vivo at 25 mg/kg in assay [2] of 51%.

As for `Cc1c(C)n(CCC(=O)NO)c2ccccc12` [Example 3F, β-(2,3-Dimethyl-1-indole)propionohydroxamic acid], the inhibition in vivo at 100 mg/kg in assay [1] (setting [4]) is 34%. In addition, in assay [1] (oral, 100 mg./kg.), the “pH of the gastric fluid” value came to 1.3. Besides, in assay [2], the inhibition in vivo at 50 mg/kg stood at 95%.

Regarding `Cc1c(C(=O)C(F)(F)F)c2ccccc2n1CCC(N)=O` [Example 4L, β-(2-Methyl-3-trifluoroacetyl-1-indole)propionamide], the inhibition in vivo at 100 mg/kg in assay [1] (Rattus norvegicus, 5 h, oral, 100 mg./kg., read-out: % Inhibition of Free Acid) was found to be 46%; in assay [1] (Rattus norvegicus, intraduodenal, 5 h, i.d., 100 mg./kg., read-out: % Inhibition of Free Acid) it was 65%; in assay [1] (Rattus norvegicus, ip, 5 h, i.p., 100 mg./kg., read-out: % Inhibition of Free Acid), 78%. Further, the “pH of the gastric fluid” value is 2.5 in assay [1] (i.d., 100 mg./kg.); 3.8 in assay [1] (i.p., 100 mg./kg.); 1.8 in assay [1] (oral, 100 mg./kg.).
